These results are taken from patent US8173689B2 (Novartis AG, priority 2006, dated 2012).

Molecules are shown by their SMILES.

The target of assay [1] is T1, cytoplasmic domain of the human CSF-1R (Homo sapiens, UniProt P07333).
T1 construct: Recombinant protein corresponding to the cytoplasmic domain of the human CSF-1R; purchased Invitrogen Corporation, Carlsbad, Calif; PV3249
T1 sequence (P07333 539-972 limits assumed): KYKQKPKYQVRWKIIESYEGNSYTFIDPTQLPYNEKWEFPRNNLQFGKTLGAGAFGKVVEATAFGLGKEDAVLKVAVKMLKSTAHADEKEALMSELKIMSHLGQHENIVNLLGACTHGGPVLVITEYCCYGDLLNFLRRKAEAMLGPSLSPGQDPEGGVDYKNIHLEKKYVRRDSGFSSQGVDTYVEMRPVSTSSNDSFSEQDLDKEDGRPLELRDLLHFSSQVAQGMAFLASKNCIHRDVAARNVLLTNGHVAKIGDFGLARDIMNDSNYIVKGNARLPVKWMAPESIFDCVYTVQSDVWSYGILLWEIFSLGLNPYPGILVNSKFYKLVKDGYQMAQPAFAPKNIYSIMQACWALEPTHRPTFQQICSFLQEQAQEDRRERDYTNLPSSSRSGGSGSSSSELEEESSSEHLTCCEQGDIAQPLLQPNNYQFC
As to the kind of experiment: In vitro kinase assay for colony stimulating factor-1 receptor (AlphaScreen). The class given is biochemical. As to conditions: tested at about 1 μM; read-out: CSF-1R percent inhibition. Summed up: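 Tyrosine phosphorylation of a peptide substrate by 4 nM recombinant cytoplasmic-domain enzyme is measured at 1 μM ATP in Mn2+/Mg2+-containing Hepes buffer, pH 7.5. Detection uses PT66 AlphaScreen beads after overnight incubation.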

For the next assay, the target named is T2, kinase domain of PDGFRβ (Homo sapiens, UniProt P09619).
T2 construct: The kinase domain of PDGFRβ was assayed in 50 mM Hepes; purchased Invitrogen P3082
T2 sequence (P09619 600-962 limits assumed): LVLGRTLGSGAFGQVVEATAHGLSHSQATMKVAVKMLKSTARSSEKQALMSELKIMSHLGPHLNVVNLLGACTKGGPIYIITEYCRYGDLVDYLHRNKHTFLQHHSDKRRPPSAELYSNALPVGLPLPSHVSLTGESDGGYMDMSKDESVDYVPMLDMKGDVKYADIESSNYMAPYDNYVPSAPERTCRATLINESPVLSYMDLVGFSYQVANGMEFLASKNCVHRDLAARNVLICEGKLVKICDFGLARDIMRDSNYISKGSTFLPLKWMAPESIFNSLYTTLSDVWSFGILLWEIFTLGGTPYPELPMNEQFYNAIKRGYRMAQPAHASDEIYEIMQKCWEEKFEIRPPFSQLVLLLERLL
The assay can be described thus: Inhibition of PDGFRb kinase signaling in an in vitro biochemical assay (alphascreen). As to conditions: tested at about 1 μM; read-out: PDGFRβ percent inhibition.

For the next assay, the target named is T3, kinase domain of cKIT (Homo sapiens, UniProt P10721).
T3 construct: The kinase domain of cKIT was assayed in 50 mM Hepes; purchased Upstate 14-559
T3 sequence (P10721 589-937 limits assumed): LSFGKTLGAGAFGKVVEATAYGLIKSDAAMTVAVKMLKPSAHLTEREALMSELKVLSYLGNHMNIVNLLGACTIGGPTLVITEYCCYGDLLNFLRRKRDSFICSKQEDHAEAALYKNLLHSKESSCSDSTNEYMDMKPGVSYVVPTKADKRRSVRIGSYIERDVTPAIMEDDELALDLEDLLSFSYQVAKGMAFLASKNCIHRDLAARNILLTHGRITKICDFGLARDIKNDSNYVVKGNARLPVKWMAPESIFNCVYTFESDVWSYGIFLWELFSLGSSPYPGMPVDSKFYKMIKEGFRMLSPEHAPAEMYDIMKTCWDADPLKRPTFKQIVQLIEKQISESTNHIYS
The assay can be described thus: Inhibition of cKIT kinase signaling in an in vitro biochemical assay (alphascreen). The settings on record: tested at about 1 μM; read-out: cKit percent inhibition.

In assay [2] the test system is MNFS60 (murine AML cells). As to the kind of experiment: Cell viability assay in MCSF dependent MNFS60 cells (Cell Titer Glo). The class given is cell-based. The settings on record: Mus musculus, tested at about 1 μM; MNFS60 cells; read-out: M-NFS-60 CP percent inhibition. On the procedure:
Cell viability was assessed by Cell Titer Glo, Promega. […] Test compounds were serially diluted (3 fold) in DMSO to 500× the final concentration. […] Final concentration of MCSF is 10 ng/ml. Cells were incubated for 72 hrs at 37° C., 5% CO2. After the incubation 100 μl Cell Titer Glo is added to each well to determine viable cells. The assay was performed according to the manufacturer's instruction (Promega Corporation, Madison, Wis. USA). Each experimental condition was performed in triplicate. Raw data was imported in Abase and EC50s calculated with XL-fit data analysis software.

In the case of `CNC(=O)c1cc(Oc2ccc3nc(NCc4ccncc4)oc3c2)ccn1` [Compound 57, 4-{2-[(Pyridin-4-ylmethyl)-amino]-benzooxazol-6-yloxy}-pyridine-2-carboxylic acid methylamide], the inhibition at 1 µM was found to be 97% in assay [1], 3% on kinase domain of PDGFRβ, 35% on kinase domain of cKIT and 35% in assay [2].

As to `CNC(=O)c1cc(Oc2ccc3nc(Nc4cccc(CCN5CCCCC5)c4)oc3c2)ccn1` [Compound 58, 4-{2-[3-(2-Piperidin-1-yl-ethyl)-phenylamino]-benzooxazol-6-yloxy}-pyridine-2-carboxylic acid methylamide], the inhibition at 1 µM in assay [1] was 98%; at kinase domain of PDGFRβ, 85%; on kinase domain of cKIT, 48%; in assay [2], 30%.

As for `CNC(=O)c1cc(Oc2ccc3nc(NCCc4ccccc4)oc3c2)ccn1` [Compound 61, 4-(2-Phenylethylamino-benzo-oxazol-6-yloxy)-pyridine-2-carboxylic acid methylamide], the inhibition at 1 µM in assay [1] was 94%; on kinase domain of PDGFRβ it was 0%; at kinase domain of cKIT it was 74%; in assay [2], 35%.

Take `CC(C)(C)OC(=O)NNC(=O)c1cc(Oc2ccc3nc(NCC4CCCCC4)oc3c2)ccn1` [Compound 68, N'-{4-[2-(Cyclohexylmethyl-amino)-benzooxazol-6-yloxy]-pyridine-2-carbonyl}-hydrazinecarboxylic acid tert-butyl ester]: the inhibition at 1 µM in assay [1] turned out to be 99%; at kinase domain of PDGFRβ, 3%; on kinase domain of cKIT, 6%; in assay [2], 18%.

As for `NC(=O)c1cc(Oc2ccc3nc(NCC4CCCCC4)oc3c2)ccn1` [Compound 69, 4-[2-(Cyclohexylmethyl-amino)-benzooxazol-6-yloxy]-pyridine-2-carboxylic acid amide], the inhibition at 1 µM was determined as 100% in assay [1], 0% at kinase domain of PDGFRβ, 0% on kinase domain of cKIT and 0% in assay [2].

Take `CNC(=O)c1cc(Oc2ccc3nc(NC4CC=CCC4)oc3c2)ccn1` (stereo not shown) [Compound 70, 4-[2-(Cyclohex-3-enylamino)-benzooxazol-6-yloxy]-pyridine-2-carboxylic acid methylamide]: the inhibition at 1 µM in assay [1] is 99%; at kinase domain of PDGFRβ, 0%; on kinase domain of cKIT, 0%; in assay [2], 0%.

Take `CNC(=O)c1cc(Oc2ccc3nc(NCc4ccc(F)cc4F)oc3c2)ccn1` [Compound 71, 4-[2-(2,4-Difluoro-benzylamino)-benzooxazol-6-yloxy]-pyridine-2-carboxylic acid methylamide]: the inhibition at 1 µM in assay [1] was 100%; at kinase domain of PDGFRβ it was 0%; on kinase domain of cKIT, 27%; in assay [2] it was 11%.

With `CNC(=O)c1cc(Oc2ccc3nc(NCc4ccccc4Br)oc3c2)ccn1` [Compound 72, 4-[2-(2-Bromo-benzylamino)-benzooxazol-6-yloxy]-pyridine-2-carboxylic acid methylamide], the inhibition at 1 µM in assay [1] turned out to be 100%; on kinase domain of PDGFRβ it was 0%; on kinase domain of cKIT, 65%; in assay [2], 48%.

In the case of `CNC(=O)c1cc(Oc2ccc3nc(NCc4cc(OC)ccc4F)oc3c2)ccn1` [Compound 73, 4-[2-(2-Fluoro-5-methoxy-benzylamino)-benzooxazol-6-yloxy]-pyridine-2-carboxylic acid methylamide], the inhibition at 1 µM in assay [1] came to 100%; at kinase domain of PDGFRβ, 2%; on kinase domain of cKIT, 21%; in assay [2], 0%.

Turning to `CNC(=O)c1cc(Oc2ccc3nc(Nc4cccc(CCN5CCOCC5)c4)oc3c2)ccn1` [Compound 74, 4-{2-[3-(2-Morpholin-4-yl-ethyl)-phenylamino]-benzo-oxazol-6-yloxy}-pyridine-2-carboxylic acid methylamide], the inhibition at 1 µM is 100% in assay [1], 31% at kinase domain of PDGFRβ, 34% at kinase domain of cKIT and 14% in assay [2].
